Measured values reported in patent US20230101743A1, “SUBSTITUTED TRIAZINE COMPOUNDS AND USES THEREOF” (MUSC FOUNDATION FOR RESEARCH DEVELOPMENT, priority 2020, published 2023).

Key:
[1] = tested on: APOB secretion in the culture medium of hepatic cells; assay: Secreted APOB ELISA in hepatic cells (K3 and JD4 iPSC-derived hepatocytes, human primary hepatocytes, HepG2); assay type: cell-based; details: 2 μg/mL, 24 hours; compared to DMSO-treated cells
Protocol: A. Human-induced pluripotent stem cells from a health donor (K3) and HoFH patient (JD4) were differentiated into hepatocytes via a defined protocol. Two different iPSC-derived Hepatocytes along with human primary hepatocytes and HepG2 cells were treated with 2 μg/mL of DL-1 for 24 hours and secreted APOB level were determined via human-specific APOB ELISA and were compared to DMSO-treated cells. […] Data shown as mean±SEM of triplicates (n=3); * p<0.05, *** P<0.001.
Human iPSCs were generated previously and have been described elsewhere (Si-Tayeb, 2010; Cayo et al., 2012). […]
(§1) Human APOB level was determined via a commercial sandwich ELISA (3715-1H-6; Mabtech), and the signal was detected using the HRP-TMB system. The concentration of APOB was determined using a standard curve with four parameters logistic regression model. Human APOA level was determined via a commercial sandwich ELISA (3710-1H-6; Mabtech) following manufacture instruction. Human albumin levels in cell culture supernatants were measured by commercial ELISA (E88-129; Bethyl Laboratories) following manufactural instructions.

APOA = assay: Secreted APOA ELISA in iPSC-derived hepatocytes; assay type: cell-based, human; details: 2 μg/mL, 8 to 48 hours
Protocol: E. Human iPSC-derived hepatocytes were treated with 2 μg/mL of DL-1 from 8 to 48 hours. Albumin, APOPA, and APOB level in the culture medium were determined via ELISA. All secreted proteins were compared to non-treated cells. In FIG. 5, accumulated APOB in the medium from different time-point was measured and normalized to albumin level. In FIG. 6, APOA, APOB, and albumin in the medium at the indicated times were compared to control. […] Data are shown as mean±SEM of four replicates (n=4); *p<0.05, **p<0.01.
as §1

## Sc1nc(S)nc(Nc2ccc(Nc3ccccc3)cc2)n1 (racemic) [DL-1, 6-{[4-(phenylamino)phenyl]amino}-1,3,5-triazine-2,4-dithiol]
[1]
  secreted APOB level: reduces APOB secretion
APOA
  APOA level in culture medium, time course: without affecting albumin and APOA level
